This note sets out measurements from EP4745134A1 (Jiangsu Yahong Meditech Co., Ltd., priority 2023, dated 2025).

Structures are written as SMILES.

In test [1] the test system is HCT116-WT cells. Description: Inhibitory activity against cell proliferation (CellTiter Glo, 6 days), HCT116-WT. It is filed as cell-based. Particulars: 144 h, HCT116-WT cells, 6 days, CellTiter Glo; read-out: HCT116-WT IC50. The essentials:
(§1)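 Viability is measured by CellTiter Glo luminescence on day 7, following a 6-day treatment with compounds serially diluted 4-fold over 8 points from 10000 nM. Both lines are plated at 250 cells per well and cultured overnight beforehand.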
In general terms: In ATP-based viability assays light output follows the ATP content of the culture.

Test [2] has as its system HCT116 MTAP KO cells. Briefly: Inhibitory activity against cell proliferation (CellTiter Glo, 6 days), HCT116 MTAP KO. It is filed as cell-based. Particulars: for IC50: Homo sapiens, HCT-116, 144 h, HCT116 MTAP KO cells, 6 days, CellTiter Glo, read-out: HCT116 MTAP KO IC50; for Selectivity HCT 116-WT/ HCT116 MTAP KO: ratio of IC50 HCT116-WT / HCT116 MTAP KO. The gist of the method: as §1

Test [3] has as its target PRMT5-MTA (Homo sapiens, UniProt O14744). Description: Enzymatic inhibitory activity against PRMT5-MTA (AlphaScreen). To be noted: read-out: IC50. It is filed as biochemical. The essentials:
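PRMT5/[…] (1 nM) was preincubated for 30 min at room temperature with 1 µM […] and 2.5 µM SAM, then exposed to compound (10-point, 3-fold from 1000 nM) for 15 min at 23 °C. Histone H4 substrate (5 nM) was added and reacted for 45 min at 23 °C. Symmetric dimethyl-R3 H4 was detected by AlphaScreen and IC50 calculated.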
Background: Bead proximity is the source of the signal in Alpha formats.

PRMT5-MTA, sequence (O14744 whole entry): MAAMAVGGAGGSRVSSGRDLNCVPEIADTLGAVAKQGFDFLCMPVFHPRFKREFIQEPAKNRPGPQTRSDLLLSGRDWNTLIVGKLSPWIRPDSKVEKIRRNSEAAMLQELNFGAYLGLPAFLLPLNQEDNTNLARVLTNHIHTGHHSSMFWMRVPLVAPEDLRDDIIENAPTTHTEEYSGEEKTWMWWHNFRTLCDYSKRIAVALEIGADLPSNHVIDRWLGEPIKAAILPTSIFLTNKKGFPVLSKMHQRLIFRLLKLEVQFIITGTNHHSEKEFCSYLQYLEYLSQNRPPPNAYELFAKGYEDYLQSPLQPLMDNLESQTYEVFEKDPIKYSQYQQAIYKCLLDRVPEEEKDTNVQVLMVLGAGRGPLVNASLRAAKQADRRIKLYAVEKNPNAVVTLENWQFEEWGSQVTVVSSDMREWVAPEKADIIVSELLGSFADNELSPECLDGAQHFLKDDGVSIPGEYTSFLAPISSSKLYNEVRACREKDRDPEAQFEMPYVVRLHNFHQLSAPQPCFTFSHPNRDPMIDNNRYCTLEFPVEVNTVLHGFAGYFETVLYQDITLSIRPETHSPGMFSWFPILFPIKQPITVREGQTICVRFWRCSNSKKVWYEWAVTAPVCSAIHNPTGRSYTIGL
PRMT5-MTA, sequence (Q9BQA1 whole entry partner): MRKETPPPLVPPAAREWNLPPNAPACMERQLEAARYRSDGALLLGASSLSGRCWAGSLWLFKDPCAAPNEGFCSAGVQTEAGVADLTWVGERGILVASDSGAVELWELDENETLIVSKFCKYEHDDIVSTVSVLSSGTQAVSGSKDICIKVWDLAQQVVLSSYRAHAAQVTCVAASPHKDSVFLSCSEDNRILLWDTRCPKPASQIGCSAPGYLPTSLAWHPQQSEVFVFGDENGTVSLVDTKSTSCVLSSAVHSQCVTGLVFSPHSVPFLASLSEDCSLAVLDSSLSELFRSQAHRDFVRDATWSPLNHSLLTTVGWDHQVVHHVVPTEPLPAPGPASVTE

In general, IC50 refers to the concentration that gives 50% inhibition. `Cc1ncc(-c2ccc(CN(C(=O)c3ccc4nc(N)c(C)cc4c3)N(C)c3ncccn3)nc2)s1` [Example 151, 2-amino-N',3-dimethyl-N-((5-(2-methylthiazol-5-yl)pyridin-2-yl)methyl)-N'-(pyrimidin-2-yl)quinoline-6-carbohydrazide]: the figures for the IC50 in test [1], in test [2] and in test [3] were 601 nM, 19 nM and 6.4 nM, respectively. Moreover, in test [2], the “Selectivity HCT 116-WT/ HCT116 MTAP KO” value stood at 31.63.

Take `Cc1cc2nc(N)c3cnn(C)c3c2cc1C(=O)N1CC(C)CN1c1ncc(C#CC(C)(C)O)cc1F` (centres unmarked) [Example 493, (4-amino-1,7-dimethyl-1H-pyrazolo[4,3-c]quinolin-8-yl)(2-(3-fluoro-5-(3-hydroxy-3-methyl-but-1-yn-1-yl)pyridin-2-yl)-4-methylpyrazolidin-1-yl)methanone]: the IC50 in test [1] was 1900 nM; in test [2] it was 68 nM; in test [3], 5.1 nM. Besides, in test [2], the “Selectivity HCT 116-WT/ HCT116 MTAP KO” value was 27.94.

With `Cc1cc2nc(N)c3cnn(C)c3c2cc1C(=O)N1CC(C)CN1c1ncc(C#CCO)cc1F` (centres unmarked) [Example 492, (4-amino-1,7-dimethyl-1H-pyrazolo[4,3-c]quinolin-8-yl)(2-(3-fluoro-5-(3-hydroxyprop-1-yn-1-yl)pyridin-2-yl)-4-methylpyrazolidin-1-yl)methanone], the IC50 in test [1] stood at 1940 nM; in test [2], 37 nM; in test [3] it was 3.3 nM. Moreover, the “Selectivity HCT 116-WT/ HCT116 MTAP KO” value in test [2] is recorded as 52.49.

With `COc1ncc(F)cc1-c1ccc(CN(C(=O)c2ccc3nc(N)c(C)cc3c2)N(C)c2ncccn2)nc1` [Example 161, 2-amino-N-((5'-fluoro-2'-methoxy-[3,3'-bipyridine]-6-yl)methyl)-N',3-dimethyl-N'-(pyrimidin-2-yl)quinoline-6-carbohydrazide], the results for the IC50 in test [1], in test [2] and in test [3] were 1780 nM, 87 nM and 1.7 nM, respectively. The “Selectivity HCT 116-WT/ HCT116 MTAP KO” value in test [2] stood at 20.48.

On to `Cc1cc2cc(C(=O)N(Cc3ccc(Br)cn3)N(c3ncccn3)C3CC3)ccc2nc1N` [Example 82, 2-amino-N-((5-bromopyridin-2-yl)methyl)-N'-cyclopropyl-3-methyl-N'-(pyrimidin-2-yl)quinoline-6-carbohydrazide], for which the IC50 in test [1] was 282 nM; in test [2], 16 nM; in test [3], 2.2 nM. In test [2], the “Selectivity HCT 116-WT/ HCT116 MTAP KO” value came to 17.63.

For `Cc1cc2nc(N)c3cnn(C)c3c2cc1C(=O)N1CC(C)CN1c1ncccc1Cl` (centres unmarked) [Example 369, (4-amino-1,7-dimethyl-1H-pyrazolo[4,3-c]quinolin-8-yl)(2-(3-chloropyridin-2-yl)-4-methylpyrazolidin-1-yl)methanone], the IC50 stood at 2700 nM in test [1], 84 nM in test [2] and 3.9 nM in test [3]. Further, the “Selectivity HCT 116-WT/ HCT116 MTAP KO” value in test [2] is 32.12.

As to `Cc1cc2cc(C(=O)N(Cc3ccc(-c4cnn(C5CC5)c4)cn3)N(C)c3ncccn3)ccc2nc1N` [Example 192, 2-amino-N-((5-(1-cyclopropyl-1H-pyrazol-4-yl)pyridin-2-yl)methyl)-N',3-dimethyl -N'-(pyrimidin-2-yl)quinoline-6-carbohydrazide], the results for the IC50 in test [1], in test [2] and in test [3] were 1220 nM, 44 nM and 2.1 nM, respectively. For the same molecule, in test [2], the “Selectivity HCT 116-WT/ HCT116 MTAP KO” value came out at 27.66.

As to `Cc1cc2cc(C(=O)N(Cc3ccc(C(F)(F)F)cn3)N(C)c3ncc(Br)cn3)ccc2nc1N` [Example 50, 2-amino-N'-(5-bromopyrimidin-2-yl)-N', 3-dimethyl-N-((5-(trifluoromethyl)pyridin-2-yl)methyl)quinoline-6-carbohydrazide], the IC50 came to 3800 nM in test [1], 219 nM in test [2] and 2.1 nM in test [3]. In addition, in test [2], the “Selectivity HCT 116-WT/ HCT116 MTAP KO” value turned out to be 17.33.
